# Experimental data taken from patent US6723741B2, “Benzimidazoles and benzothiazoles and uses thereof” (Synaptic Pharmaceutical Corporation, priority 1996, dated 2004).
# Where two headings read alike, the source gives them in different places.
# How the values were obtained:
# [1] = molecular target: T1, human α2A adrenergic receptor (Homo sapiens, UniProt P08913); assay: Radioligand binding assay, [3H]rauwolscine competition; set-up: expressed in transfected cells
# T1 sequence (P08913 1-465): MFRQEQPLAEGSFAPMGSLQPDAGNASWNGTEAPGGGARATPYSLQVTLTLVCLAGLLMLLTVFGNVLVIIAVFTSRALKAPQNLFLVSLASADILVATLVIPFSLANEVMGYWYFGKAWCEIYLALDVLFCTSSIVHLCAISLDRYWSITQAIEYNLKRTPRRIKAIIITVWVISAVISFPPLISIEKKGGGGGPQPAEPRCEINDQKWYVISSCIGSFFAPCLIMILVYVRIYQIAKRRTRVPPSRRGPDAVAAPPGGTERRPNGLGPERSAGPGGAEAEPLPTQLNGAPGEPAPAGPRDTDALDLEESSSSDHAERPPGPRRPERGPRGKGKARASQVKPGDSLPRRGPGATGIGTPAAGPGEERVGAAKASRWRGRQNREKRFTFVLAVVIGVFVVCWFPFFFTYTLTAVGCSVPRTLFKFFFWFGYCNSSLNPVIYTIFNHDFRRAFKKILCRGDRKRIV
# [2] = molecular target: T2, human α2B adrenergic receptor (Homo sapiens, UniProt P18089); assay: Agonist activity: inhibition of forskolin-stimulated cAMP synthesis; format: cell-based; conditions: for I.A (Intrinsic Activity) Alpha-2 B: maximum activity relative to maximum activity induced by norepinephrine, human α2B
# T2 construct: expressed in transfected cells
# T2 sequence (P18089 1-450): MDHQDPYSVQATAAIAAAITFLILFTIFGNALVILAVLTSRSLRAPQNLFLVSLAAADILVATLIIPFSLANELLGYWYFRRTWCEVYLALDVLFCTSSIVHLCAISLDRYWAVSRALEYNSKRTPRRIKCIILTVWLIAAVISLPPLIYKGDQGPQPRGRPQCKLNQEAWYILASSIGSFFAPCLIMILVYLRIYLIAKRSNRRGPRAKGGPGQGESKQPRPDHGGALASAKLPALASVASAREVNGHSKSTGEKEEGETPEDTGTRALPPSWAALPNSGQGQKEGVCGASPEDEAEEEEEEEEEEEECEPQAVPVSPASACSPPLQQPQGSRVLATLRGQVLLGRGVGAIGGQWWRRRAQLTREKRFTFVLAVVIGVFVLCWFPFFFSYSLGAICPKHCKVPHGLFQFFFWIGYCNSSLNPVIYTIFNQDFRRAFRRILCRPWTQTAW
# [3] = molecular target: T2, human α2B adrenergic receptor; assay: Radioligand binding assay, [3H]rauwolscine competition
# [4] = molecular target: T3, human α1A adrenergic receptor (Homo sapiens, UniProt P25100); assay: Radioligand binding assay, [3H]prazosin competition; conditions: cloned human α1A (old nomenclature; = α1D), LM(tk-) cell membranes, read-out: pKi Alpha-1 A (converted)
# T3 construct: expressed in transfected cells
# T3 sequence (P25100 1-572): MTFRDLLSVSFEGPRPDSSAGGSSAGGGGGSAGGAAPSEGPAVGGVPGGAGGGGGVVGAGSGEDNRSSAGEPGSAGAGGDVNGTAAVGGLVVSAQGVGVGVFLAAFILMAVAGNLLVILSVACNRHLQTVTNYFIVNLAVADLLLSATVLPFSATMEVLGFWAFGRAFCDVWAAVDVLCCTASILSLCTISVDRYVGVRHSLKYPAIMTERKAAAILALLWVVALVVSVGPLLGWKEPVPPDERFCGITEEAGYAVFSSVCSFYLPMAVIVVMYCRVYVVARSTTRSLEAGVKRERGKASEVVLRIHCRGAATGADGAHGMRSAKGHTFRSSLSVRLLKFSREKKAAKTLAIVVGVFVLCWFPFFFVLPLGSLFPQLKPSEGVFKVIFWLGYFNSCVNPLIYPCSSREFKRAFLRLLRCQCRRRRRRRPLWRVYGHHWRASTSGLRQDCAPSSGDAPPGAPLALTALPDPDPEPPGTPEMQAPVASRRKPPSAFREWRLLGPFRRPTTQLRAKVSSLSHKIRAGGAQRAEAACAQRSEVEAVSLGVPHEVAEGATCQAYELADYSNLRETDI
# Protocol: Equilibrium competition binding assays were performed with membrane preparations from cultured LM(tk^−) cells stably transfected with the cloned human alpha adrenoreceptor subtypes except for α2b, which was expressed in Y-1 cells, using [^3H] prazosin for α1 receptors and [^3H] rauwolscine for α2 receptors. Further details of pharmacological evaluations of claimed compounds are described in Example 21.
# The cloned human alpha-1 adrenergic receptor subtypes referred to throughout this application as α1A, α1B, and α1C have recently been assigned new subtype designations by the IUPHAR Nomenclature Committee as outlined in the 1995 Receptor and Ion Channel Nomenclature Supplement (Watson and Girdlestone, 1995). In the new nomenclature system the cloned human α1A receptor referred to herein was given the appellation “α1D,” while the cloned human α1C receptor referred to herein was given the appellation “α1A”. However, throughout this application and the supporting tables and figures the old nomenclature will be used to describe the cloned human alpha-1 adrenergic receptor subtypes. The old nomenclature is used throughout this application because stable cell lines expressing the cloned human alpha-1 adrenergic receptors were produced and deposited with the ATCC according to the Budapest Treaty for the Deposit of Microorganisms, under designations assigned before the nomenclature change.
# The construct involved the ligation of partial overlapping human lymphocyte genomic and hippocampal cDNA clones: 5′ sequences were contained on a 1.2 kb SmaI-XhoI genomic fragment (the vector-derived BamHI site was used for subcloning instead of the internal insert-derived SmaI site) and 3′ sequences were contained on 1.3 kb XhoI-ClaI cDNA fragment (the ClaI site was from the vector polylinker). Stable cell lines were produced and selected as described above.
# Transfected cells from culture flasks were scraped into 5 mL of 5 mM Tris-HCl, 5 mM EDTA, pH 7.5, and lysed by sonication. The cell lysates were centrifuged at 1000 rpm for 5 min at 4° C., and the supernatant was centrifuged at 30,000×g for 20 min at 4° C. The pellet was suspended in 50 mM Tris-HCl, 1 mM MgCl2, and 0.1% Ascorbic acid at pH 7.5. Binding of α2 antagonist [^3H] rauwolscine ([…]) to membrane preparations of LM(tk−) cells was done in a final volume of 0.25 mL and incubated at 37° C. for 20 min. Nonspecific binding was determined in the presence of 10 μM phentolamine. The reaction was stopped by filtration through GF/B filters using a cell harvester.
# [5] = inhibition of forskolin-stimulated cAMP, stably transfected cells expressing human α2B, read-out: pEC50 Alpha-2 B (converted)
SMILES,"Ki ([1]; cloned human α2A, LM(tk-) cell membranes, [3H]rauwolscine, read-out: pKi Alpha-2 A (converted)) [nM]","EC50 [2, 5] [nM]",I.A (Intrinsic Activity) Alpha-2 B [2],"Ki ([3]; cloned human α2B, Y-1 cell membranes, [3H]rauwolscine, read-out: pKi Alpha-2 B (converted)) [nM]",Ki [4] [nM],Ki [3] [nM],Ki [1] [nM],EC50 [2] [nM]
"c1nc2ccc(NC3=NCCS3)cc2s1 [Example 15, 6-(2-Thiazolin-2-ylamino)benzothiazole]",115,138,0.57,162,6030,,,
"N#Cc1cc(NC2=NCCN2)cc2cc[nH]c12 [Example 5, 7-Cyano-5-(2-imidazolin-2-ylamino)indole]",,316,0.60,,162,15.5,,
"c1nc2cc(NC3=NCCN3)ccc2s1 [Example 13, 5-(2-Imidazolin-2-ylamino)benzothiazole]",,10.2,0.82,,186,4.57,3.72,
"c1nc2ccc(NC3=NCCN3)cc2s1 [Example 14, 6-(2-Imidazolin-2-ylamino)benzothiazole]",,,0.47,,1700,14.1,,14.1
"Brc1cc(NC2=NCCN2)cc2cc[nH]c12 [Example 2, 7-Bromo-5-(2-imidazolin-2-ylamino)indole]",,1.91,0.75,,2.88,2.88,0.724,
"CC(=O)c1cc(NC2=NCCN2)cc2cc[nH]c12 [Example 6, 7-Acetyl-5-(2-imidazolin-2-ylamino)indole]",,81.3,0.70,,93.3,45.7,,
